Key:
[1] = Stability of the polymorphic form (vacuum at 50° C., crushing); type: physicochemical
[2] = mixed with three volumes of lactose monohydrate, 40° C. and 75% RH, one week
[3] = Hygroscopicity (moisture absorption) in DVS; type: physicochemical; conditions: relative humidity (RH) of 90%

| Structure (SMILES) | Change of polymorphic form under vacuum at 50° C. [1] | Appearance after stress storage (color, crystallinity, texture) [2] | moisture absorption value ([3]; listed as desloratadine polymorphic form 1) [%] | moisture absorption value ([3]; listed as Desloratadine hemifumarate polymorphic form 2) [%] | moisture absorption value [3] [%] |
| --- | --- | --- | --- | --- | --- |
| Clc1ccc2c(c1)CCc1cccnc1C2=C1CCNCC1.Clc1ccc2c(c1)CCc1cccnc1C2=C1CCNCC1.O=C(O)C=CC(=O)O [Desloratadine hemifumarate (polymorph 1), Descarbonylethoxyloratadine Hemifumarate] | can be changed to polymorphic form 2 | retained its crystallinity, color and the texture | 0.9 | – | – |
| Clc1ccc2c(c1)CCc1cccnc1C2=C1CCNCC1.Clc1ccc2c(c1)CCc1cccnc1C2=C1CCNCC1.O=C(O)C=CC(=O)O [Desloratadine hemifumarate (polymorph 2), Descarbonylethoxyloratadine Hemifumarate] | – | retained its crystallinity, color and the texture | – | 0.3 | – |
| Clc1ccc2c(c1)CCc1cccnc1C2=C1CCNCC1 [Standard desloratadine, 8-chloro-6,11-dihydro-11-(4-piperidylidene)-5H-benzo[5,6]-cyclohepta[1,2-b]pyridine, reference compound] | – | showed discoloration | – | – | 0.3 |
